From publication PMC7168327, “Designed Antimicrobial Peptides for Topical Treatment of Antibiotic Resistant Acne Vulgaris” (Antibiotics, 2020) come the findings set out here.

Converted amounts (≈) assume the structure as drawn. “Also recorded” adds a separate entry of the source. Bridge positions count the residues as written; N and C are the ends. Peptide text beside a SMILES is read from it.

One data set has as its system C. acnes ATCC11827. The format is cell-based, Cutibacterium acnes. As to conditions: C. acnes ATCC11827; RCM broth, anaerobic, 1 × 10^6 CFU per mL, two-fold dilutions 0.5–32 μg/mL, 48 h, OD 600 nm; mean of three replicates. In outline: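 Log-phase cultures (OD600nm = 1.0, RCM plus sodium thioglycolate, 37 °C) diluted to 1 × 10^6 CFU per mL; 2-fold dilutions 0.5–32 μg per mL, 48 h, anaerobic; MIC by OD600nm; n = 3.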

For the next data set, the system named is C. acnes HL043PA2. Nature of the data set: Multidrug-resistant C. acnes intradermal murine infection model. The format is in vivo. As to conditions: topical 25 μL, BALB/c mice; for mean bacterial burden in skin (CFU/g): 7 applications 2–74 h post infection, skin harvested at 96 h, n = 6. Here is the method: All animals received care in compliance with the Guide for the Care and Use of Laboratory Animals (8th Edition, National Institutes of Health Publication, 2011). All studies were approved by the Institutional Animal Care and Use Committee. Female BALB/c mice, 5 to 7 weeks, were obtained from Envigo Laboratories Inc (Indianapolis, IN, USA). General anesthesia consisted of an intraperitoneal injection of ketamine 100 mg/kg and xylazine 10 mg/kg (Vedco, Inc., St. Joseph, MO, USA).
Mice were inoculated via intradermal (ID) injection of the antibiotic-resistant C. acnes HL043PA2 (7.0 log10 CFU, 50 μL, BEI Resources, HM-514, [14]). The day prior to infection, each mouse was anesthetized using isoflurane, and an area of approximately 1″ × 1″ of skin on the dorsal area of each mouse was shaved and cleared of hair using the depilatory agent Nair®. Beginning 2 h after infection, mice were anesthetized and RP556, formulated in 2% hydroxypropyl methylcellulose in water, viscosity 3000–5600 cP, or 40 mg/mL clindamycin (4%) was administered topically, at 25 μL twice daily for a total of 7 applications (2, 14, 26, 38, 50, 62 and 74 h post infection). Abscesses were harvested at 96 h post-challenge (or Day 7 for untreated control) and assessed for bacterial CFU per gram of skin tissue.

What is called MIC is the smallest concentration in the dilution series that meets the test's criterion for growth inhibition. A high value points to weaker potency. As to `CC[C@H](C)[C@@H]1NC(=O)CNC(=O)[C@H](CCCCN)NC(=O)[C@H](Cc2ccc(O)cc2)NC(=O)[C@@H]2CSSC[C@H](NC1=O)C(=O)N[C@@H](Cc1ccc(O)cc1)C(=O)N[C@@H](CCCCN)C(=O)N[C@@H](CCCCN)C(=O)N[C@H](C(=O)N[C@@H](CCCCN)C(N)=O)CSSC[C@H](NC(=O)[C@H](Cc1c[nH]c3ccccc13)NC(=O)[C@@H](N)CCCNC(=N)N)C(=O)N[C@@H](Cc1ccccc1)C(=O)N[C@@H](CCCCN)C(=O)N[C@@H](C(C)C)C(=O)N2` [RP556] (H-RWCFKVCYKGICYKKCK-NH2; disulfide 3-16, 7-12), the MIC in the data set on C. acnes ATCC11827 came out at 8 µg/mL (≈ 3.72 µM). In addition, the “mean bacterial burden in skin (CFU/g)” value with C. acnes HL043PA2 (RP556 5 mg/mL (0.5%) in 2% hydroxypropyl methylcellulose) is listed as “below the detectable limit; also recorded: completely eliminated C. acnes infection”; with C. acnes HL043PA2 (RP556 20 mg/mL in 2% hydroxypropyl methylcellulose) it was “below the detectable limit”. In the data set with C. acnes HL043PA2 (5 and 20 mg/mL, 7 applications), the “clinical observations and body weight following treatment” value is “no untoward clinical observations or changes in body weight”.
